Measurements: EP0908457B1, “3-(1,2-benzisothiazol- and isoxazol-5-Y1)-2,4(1H,3H)-pyrimidinedione or thione and 3-(1,2-benzisothiazol- and isoxazol-5-y1)-4(3H)-pyrimidinone or thione herbicidal agents” (BASF AKTIENGESELLSCHAFT, priority 1997, dated 1999)

How the values were obtained:
[1] = test system: Oryza sativa, (L.) Tebonnet; experiment: Rice tolerance to post-transplant applications under flooded paddy conditions (Example 187), ORYSAT (Rice, Tebonnet); on herbicidal effect rating ORYSAT: meaning of each grade not given here
[2] = test system: Cyperus serotinus, Rottb.; experiment: Preemergence weed control under flooded paddy conditions, CYPSE (Flatsedge); type: in vivo; on herbicidal effect rating, CYPSE: meaning of each grade not given here
[3] = test system: Echinochloa oryzoides (Ard.) Fritsch.; experiment: Preemergence weed control under flooded paddy conditions, ECHORC (Watergrass (Calif.)); type: in vivo; details: flooded paddy; on herbicidal effect rating, ECHORC: meaning of each grade not given here
[4] = test system: Cyperus iria; experiment: Preemergence weed control under flooded paddy conditions, CYPIR (Rice Flatsedge); type: in vivo; details: flooded paddy; on herbicidal effect rating, CYPIR: meaning of each grade not given here
[5] = test system: Sagittaria pygmaea, L.; experiment: Preemergence weed control under flooded paddy conditions, SAGPY (Arrowhead (Pygmaea)); type: in vivo; details: flooded paddy; on herbicidal effect rating, SAGPY: meaning of each grade not given here
[6] = test system: Monochoria vaginalis, Presl.; experiment: Preemergence weed control under flooded paddy conditions, MOOVA (Monochoria); type: in vivo; details: flooded paddy; on herbicidal effect rating, MOOVA: meaning of each grade not given here
[7] = Rate 0.0320 kg/ha, rated 3-4 weeks after treatment
[8] = Rate 0.0620 kg/ha, rated 3-4 weeks after treatment
[9] = Rate 0.1250 kg/ha, rated 3-4 weeks after treatment
[10] = Rate 0.2500 kg/ha, rated 3-4 weeks after treatment
[11] = Rate 0.5000 kg/ha, rated 3-4 weeks after treatment
[12] = Rate 0.0320 kg/ha, preemergence, rated 3-4 weeks after treatment
[13] = Rate 0.0620 kg/ha, preemergence, rated 3-4 weeks after treatment
[14] = Rate 0.1250 kg/ha, preemergence, rated 3-4 weeks after treatment
[15] = Rate 0.2500 kg/ha, preemergence, rated 3-4 weeks after treatment
[16] = Rate 0.5000 kg/ha, preemergence, rated 3-4 weeks after treatment
[17] = Rate 0.0320 kg/ha, preemergence weeds, rated three to four weeks after treatment
[18] = Rate 0.0620 kg/ha, preemergence weeds, rated three to four weeks after treatment
[19] = Rate 0.1250 kg/ha, preemergence weeds, rated three to four weeks after treatment
[20] = Rate 0.2500 kg/ha, preemergence weeds, rated three to four weeks after treatment
[21] = 0.0320 kg/ha, preemergence, rated three to four weeks after treatment
[22] = 0.0620 kg/ha, preemergence, rated three to four weeks after treatment
[23] = 0.2500 kg/ha, preemergence, rated three to four weeks after treatment
[24] = 0.1250 kg/ha, preemergence, rated three to four weeks after treatment

Q: How did the “herbicidal effect rating ORYSAT” value [1, 7] turn out when `CCS(=O)(=O)NC(=O)COc1ccc(C)cc1-c1nsc2ccc(-n3c(=O)cc(C(F)(F)F)n(C)c3=O)cc12` [Example 554, Acetamide, 2-{{2-{5-[3,6-dihydro-3-methyl-2,6-dioxo-4-(trifluoromethyl)-1(2H)-pyrimidinyl)-1,2-benzisothiazol-3-yl}-p-tolyl}oxy}-N-(ethylsulfonyl)-] was run?
A: 4.0

Q: What about the “herbicidal effect rating ORYSAT” value [1, 8] of the same molecule?
A: 4.0

Q: And the “herbicidal effect rating ORYSAT” value [1, 9]?
A: 6.0

Q: What about the “herbicidal effect rating ORYSAT” value [1, 10] of the same molecule?
A: 7.0

Q: And the “herbicidal effect rating ORYSAT” value [1, 11]?
A: 6.0

Q: And the “herbicidal effect rating, CYPSE” value [2, 12]?
A: 0.0

Q: And the “herbicidal effect rating, CYPSE” value [2, 13]?
A: 0.0

Q: What about the “herbicidal effect rating, CYPSE” value [2, 14] of the same molecule?
A: 4.0

Q: What about the “herbicidal effect rating, CYPSE” value [2, 15] of the same molecule?
A: 9.0

Q: What about the “herbicidal effect rating, CYPSE” value [2, 16] of the same molecule?
A: 9.0

Q: What about the “herbicidal effect rating, ECHORC” value [3, 12] of the same molecule?
A: 3.0

Q: And the “herbicidal effect rating, ECHORC” value [3, 13]?
A: 4.1

Q: And the “herbicidal effect rating, ECHORC” value [3, 14]?
A: 5.7

Q: And the “herbicidal effect rating, ECHORC” value [3, 15]?
A: 9.0

Q: What about the “herbicidal effect rating, ECHORC” value [3, 16] of the same molecule?
A: 7.0

Q: And the “herbicidal effect rating, CYPIR” value [4, 12]?
A: 2.0

Q: What about the “herbicidal effect rating, CYPIR” value [4, 13] of the same molecule?
A: 7.0

Q: What about the “herbicidal effect rating, CYPIR” value [4, 14] of the same molecule?
A: 9.0

Q: What about the “herbicidal effect rating, CYPIR” value [4, 15] of the same molecule?
A: 9.0

Q: And the “herbicidal effect rating, CYPIR” value [4, 16]?
A: 5.0

Q: And the “herbicidal effect rating, SAGPY” value [5, 12]?
A: 0.0

Q: And the “herbicidal effect rating, SAGPY” value [5, 13]?
A: 0.0

Q: And the “herbicidal effect rating, SAGPY” value [5, 14]?
A: 0.0

Q: And the “herbicidal effect rating, SAGPY” value [5, 15]?
A: 9.0

Q: What about the “herbicidal effect rating, SAGPY” value [5, 16] of the same molecule?
A: 0.0

Q: And the “herbicidal effect rating, MOOVA” value [6, 12]?
A: 9.0

Q: And the “herbicidal effect rating, MOOVA” value [6, 13]?
A: 9.0

Q: And the “herbicidal effect rating, MOOVA” value [6, 14]?
A: 9.0

Q: What about the “herbicidal effect rating, MOOVA” value [6, 15] of the same molecule?
A: 9.0

Q: And the “herbicidal effect rating, MOOVA” value [6, 16]?
A: 9.0

Q: Which results are given for `Cn1c(C(F)(F)F)cc(=O)n(-c2ccc3snc(C(=O)Nc4cc(C(C)(C)C)on4)c3c2)c1=O` [Example 331, 1,2-Benzisothiazole-3-carboxamide, N-(5-tert-butylisoxazol-3-yl)-5-[3,6-dihydro-3-methyl-2,6-dioxo-4-(trifluoromethyl)-1(2H)-pyrimidinyl]-]?
A: herbicidal effect rating ORYSAT ([1]; Rate 0.0320 kg/ha, rated three to four weeks after treatment): 0.0; herbicidal effect rating ORYSAT ([1]; Rate 0.0620 kg/ha, rated three to four weeks after treatment): 0.0; herbicidal effect rating ORYSAT ([1]; Rate 0.1250 kg/ha, rated three to four weeks after treatment): 0.0; herbicidal effect rating ORYSAT ([1]; Rate 0.2500 kg/ha, rated three to four weeks after treatment): 1.0; herbicidal effect rating, CYPSE [2, 17]: 0.0; herbicidal effect rating, CYPSE [2, 18]: 0.0; herbicidal effect rating, CYPSE [2, 19]: 0.0; herbicidal effect rating, CYPSE [2, 20]: 0.0; herbicidal effect rating, ECHORC [3, 17]: 0.0; herbicidal effect rating, ECHORC [3, 18]: 2.0; herbicidal effect rating, ECHORC [3, 19]: 4.0; herbicidal effect rating, ECHORC [3, 20]: 8.0; herbicidal effect rating, CYPIR [4, 17]: 0.0; herbicidal effect rating, CYPIR [4, 18]: 0.0; herbicidal effect rating, CYPIR [4, 19]: 5.0; herbicidal effect rating, CYPIR [4, 20]: 9.0; herbicidal effect rating, SAGPY [5, 17]: 0.0; herbicidal effect rating, SAGPY [5, 18]: 0.0; herbicidal effect rating, SAGPY [5, 19]: 0.0; herbicidal effect rating, SAGPY [5, 20]: 0.0; herbicidal effect rating, MOOVA [6, 17]: 9.0; herbicidal effect rating, MOOVA [6, 18]: 9.0; herbicidal effect rating, MOOVA [6, 19]: 9.0; herbicidal effect rating, MOOVA [6, 20]: 9.0

Q: For `Cn1c(C(F)(F)F)cc(=O)n(-c2ccc3snc(C(=O)NS(=O)(=O)Cc4cccc(Cl)c4)c3c2)c1=O` [Example 486, 1,2-Benzisothiazole-3-carboxamide, N-[(m-chlorobenzyl)sulfonyl]-5-[3,6-dihydro-3-methyl-2,6-dioxo-4-(trifluoromethyl)-1(2H)-pyrimidinyl]-], which “ORYSAT herbicidal rating (rice tolerance)” value (from here on “ORYSAT herbicidal rating”) ([1]; 0.0320 kg/ha, rated three to four weeks after treatment) is on record?
A: 0.0

Q: What about the “ORYSAT herbicidal rating” value ([1]; 0.0620 kg/ha, rated three to four weeks after treatment) of the same molecule?
A: 3.0

Q: And the “ORYSAT herbicidal rating” value ([1]; 0.1250 kg/ha, rated three to four weeks after treatment)?
A: 5.0

Q: What about the “ORYSAT herbicidal rating” value ([1]; 0.2500 kg/ha, rated three to four weeks after treatment) of the same molecule?
A: 6.0

Q: And the CYPSE herbicidal rating [2, 21]?
A: 0.0

Q: What about the CYPSE herbicidal rating [2, 22] of the same molecule?
A: 0.0

Q: And the CYPSE herbicidal rating [2, 23]?
A: 3.0

Q: And the ECHORC herbicidal rating [3, 21]?
A: 4.0

Q: And the ECHORC herbicidal rating [3, 22]?
A: 6.0

Q: What about the ECHORC herbicidal rating [3, 24] of the same molecule?
A: 7.0

Q: What about the ECHORC herbicidal rating [3, 23] of the same molecule?
A: 9.0

Q: And the CYPIR herbicidal rating [4, 21]?
A: 4.0

Q: And the CYPIR herbicidal rating [4, 22]?
A: 5.0

Q: What about the CYPIR herbicidal rating [4, 24] of the same molecule?
A: 6.0

Q: And the CYPIR herbicidal rating [4, 23]?
A: 6.0

Q: And the SAGPY herbicidal rating [5, 21]?
A: 0.0

Q: And the SAGPY herbicidal rating [5, 22]?
A: 0.0

Q: And the SAGPY herbicidal rating [5, 24]?
A: 3.0

Q: And the SAGPY herbicidal rating [5, 23]?
A: 6.0

Q: And the MOOVA herbicidal rating [6, 21]?
A: 5.0

Q: And the MOOVA herbicidal rating [6, 22]?
A: 6.0

Q: What about the MOOVA herbicidal rating [6, 24] of the same molecule?
A: 7.0

Q: And the MOOVA herbicidal rating [6, 23]?
A: 9.0

Q: `C=CCOC(=O)/C=C/c1nsc2ccc(-n3c(=O)cc(C(F)(F)F)n(C)c3=O)cc12` [Example 566, 1,2-Benzisothiazole-3-acrylic acid, 5-[3,6-dihydro-3-methyl-2,6-dioxo-4-(trifluoromethyl)-1(2H)-pyrimidinyl]-, allyl ester, (E)-] was tested. Which “herbicidal effect rating ORYSAT” value [1, 8] did it give?
A: 3.0

Q: What about the “herbicidal effect rating ORYSAT” value [1, 9] of the same molecule?
A: 5.0

Q: And the “herbicidal effect rating ORYSAT” value [1, 10]?
A: 6.0

Q: What about the “herbicidal effect rating, CYPSE” value [2, 12] of the same molecule?
A: 0.0

Q: And the “herbicidal effect rating, CYPSE” value [2, 13]?
A: 0.0

Q: And the “herbicidal effect rating, CYPSE” value [2, 14]?
A: 0.0

Q: What about the “herbicidal effect rating, CYPSE” value [2, 15] of the same molecule?
A: 3.0

Q: What about the “herbicidal effect rating, ECHORC” value [3, 12] of the same molecule?
A: 3.0

Q: What about the “herbicidal effect rating, ECHORC” value [3, 13] of the same molecule?
A: 3.0

Q: And the “herbicidal effect rating, ECHORC” value [3, 14]?
A: 3.0

Q: And the “herbicidal effect rating, ECHORC” value [3, 15]?
A: 6.0

Q: What about the “herbicidal effect rating, CYPIR” value [4, 12] of the same molecule?
A: 0.0

Q: What about the “herbicidal effect rating, CYPIR” value [4, 13] of the same molecule?
A: 0.0

Q: And the “herbicidal effect rating, CYPIR” value [4, 14]?
A: 0.0

Q: And the “herbicidal effect rating, CYPIR” value [4, 15]?
A: 9.0

Q: What about the “herbicidal effect rating, SAGPY” value [5, 12] of the same molecule?
A: 0.0

Q: What about the “herbicidal effect rating, SAGPY” value [5, 13] of the same molecule?
A: 0.0

Q: What about the “herbicidal effect rating, SAGPY” value [5, 14] of the same molecule?
A: 0.0

Q: What about the “herbicidal effect rating, SAGPY” value [5, 15] of the same molecule?
A: 9.0

Q: And the “herbicidal effect rating, MOOVA” value [6, 12]?
A: 9.0

Q: What about the “herbicidal effect rating, MOOVA” value [6, 13] of the same molecule?
A: 9.0

Q: And the “herbicidal effect rating, MOOVA” value [6, 14]?
A: 9.0

Q: What about the “herbicidal effect rating, MOOVA” value [6, 15] of the same molecule?
A: 9.0

Q: What does the source list for `Cc1ccc(OCC(N)=O)c(-c2nsc3ccc(-n4c(=O)cc(C(F)(F)F)n(C)c4=O)cc23)c1` [Example 539, Acetamide, 2-{{2-{5-[3,6-dihydro-3-methyl-2,6-dioxo-4-(trifluoromethyl)-1(2H)-pyrimidinyl]-1,2-benzisothiazol-3-yl}-p-tolyl}oxy}-]?
A: herbicidal effect rating ORYSAT [1, 7]: 0.0; herbicidal effect rating ORYSAT [1, 8]: 1.0; herbicidal effect rating ORYSAT [1, 9]: 1.0; herbicidal effect rating ORYSAT [1, 10]: 1.0; herbicidal effect rating ORYSAT [1, 11]: 5.0; herbicidal effect rating, CYPSE [2, 12]: 0.0; herbicidal effect rating, CYPSE [2, 13]: 0.0; herbicidal effect rating, CYPSE [2, 14]: 0.0; herbicidal effect rating, CYPSE [2, 15]: 0.0; herbicidal effect rating, CYPSE [2, 16]: 2.0; herbicidal effect rating, ECHORC [3, 12]: 2.1; herbicidal effect rating, ECHORC [3, 13]: 3.0; herbicidal effect rating, ECHORC [3, 14]: 4.7; herbicidal effect rating, ECHORC [3, 15]: 7.0; herbicidal effect rating, ECHORC [3, 16]: 9.0; herbicidal effect rating, CYPIR [4, 12]: 0.0; herbicidal effect rating, CYPIR [4, 13]: 2.0; herbicidal effect rating, CYPIR [4, 14]: 6.0; herbicidal effect rating, CYPIR [4, 15]: 8.0; herbicidal effect rating, CYPIR [4, 16]: 9.0; herbicidal effect rating, SAGPY [5, 12]: 0.0; herbicidal effect rating, SAGPY [5, 13]: 0.0; herbicidal effect rating, SAGPY [5, 14]: 1.0; herbicidal effect rating, SAGPY [5, 15]: 4.0; herbicidal effect rating, SAGPY [5, 16]: 9.0; herbicidal effect rating, MOOVA [6, 12]: 8.0; herbicidal effect rating, MOOVA [6, 13]: 9.0; herbicidal effect rating, MOOVA [6, 14]: 9.0; herbicidal effect rating, MOOVA [6, 15]: 9.0; herbicidal effect rating, MOOVA [6, 16]: 9.0
